Laboratory results as given in patent US11325938B2, “CD73 inhibitors” (ORIC Pharmaceuticals, Inc., priority 2018, dated 2022).

target: CD73 (Homo sapiens (Human), UniProt P21589); experiment: Biochemical assay: inhibition of CD73 activity (AMP hydrolysis, Malachite Green readout); conditions: CD73 0.3208 nM, AMP 15 μM, 25 mM Tris-HCl pH 7.4, RT, absorbance 620 nm
Protocol: Example A1: Biochemical Assay
Assay Reaction Conditions
• Assay Volume: 70 μl • Reaction Volume: 50 μl • CD73: 0.3208 nM • AMP: 15 μM • Assay Buffer: 25 mM Tris-HCL, pH 7.4, 0.01% Brij-35, 0.01% BSA, 5 mM MgCl2 Assay Procedure:
Made dose titration of testing compounds in assay buffer, 10 points ½ log titrations in duplicates starting at 100 μM.
Added 25 μl of CD73 to each well for a final concentration of 320 pM.
Incubated at RT for 15 min.
Added 25 μl of AMP to each well for a final concentration of 15 μM.
Incubated at RT for 10 min.
Added 10 μl of Malachite Green Reagent A, incubate at RT for 10 min.
Added 10 of Malachite Green Reagent B, incubate at RT for 45 min.
Read the Absorbance on Envision plate reader using excitation filter: Cy5 […].
The ability of the compounds disclosed herein to inhibit CD73 activity was quantified and the respective IC50 values were determined. Table 2 provides the biochemical IC50 values of compounds disclosed herein.

Chain of CD73 (P21589 27-574): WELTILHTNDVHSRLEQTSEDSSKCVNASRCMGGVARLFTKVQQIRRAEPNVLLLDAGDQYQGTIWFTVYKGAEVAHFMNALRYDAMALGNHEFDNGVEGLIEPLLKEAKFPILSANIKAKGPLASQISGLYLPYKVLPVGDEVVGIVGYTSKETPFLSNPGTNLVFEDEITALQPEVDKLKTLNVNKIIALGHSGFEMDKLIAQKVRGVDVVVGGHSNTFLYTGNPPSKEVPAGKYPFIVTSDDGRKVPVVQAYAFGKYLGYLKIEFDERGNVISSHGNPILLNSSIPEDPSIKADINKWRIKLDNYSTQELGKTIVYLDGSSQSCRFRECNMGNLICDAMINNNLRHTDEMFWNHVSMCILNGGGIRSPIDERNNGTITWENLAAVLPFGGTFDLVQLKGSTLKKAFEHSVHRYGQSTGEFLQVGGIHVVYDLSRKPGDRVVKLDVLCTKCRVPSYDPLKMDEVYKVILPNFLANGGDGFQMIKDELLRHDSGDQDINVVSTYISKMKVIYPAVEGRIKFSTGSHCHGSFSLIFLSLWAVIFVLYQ

Structure (SMILES) | IC50 [nM]
NC(=O)OCC(CO)(OC[C@H]1O[C@@H](n2ncc3c(NC4CCCC4)nc(Cl)nc32)[C@H](O)[C@@H]1O)P(=O)(O)O (mixture of isomers) [Example 178, rac-(1-(carbamoyloxy)-2-(((2R,3S,4R,5R)-5-(6-chloro-4-(cyclopentylamino)-1H-pyrazolo[3,4-d]pyrimidin-1-yl)-3,4-dihydroxytetrahydrofuran-2-yl)methoxy)-3-hydroxypropan-2-yl)phosphonic acid] | ≤ 100
O=P(O)(O)[C@](CO)(COCc1ccccc1)OC[C@H]1O[C@@H](n2ncc3c(NC4CCCC4)nc(Cl)nc32)[C@H](O)[C@@H]1O (racemic) [Example 179, rac-((R)-1-(benzyloxy)-2-(((2R,3S,4R,5R)-5-(6-chloro-4-(cyclopentylamino)-1H-pyrazolo[3,4-d]pyrimidin-1-yl)-3,4-dihydroxytetrahydrofuran-2-yl)methoxy)-3-hydroxypropan-2-yl)phosphonic acid] | ≤ 100
O=P(O)(O)[C@@](CO)(COCc1ccccc1)OC[C@H]1O[C@@H](n2ncc3c(NC4CCCC4)nc(Cl)nc32)[C@H](O)[C@@H]1O (racemic) [Example 180, rac-((R)-1-(benzyloxy)-2-(((2S,3R,4S,5S)-5-(6-chloro-4-(cyclopentyalmino)-1H-pyrazolo[3,4-d]pyrimidin-1-yl)-3,4-dihydroxytetrahydrofuran-2-yl)methoxy)-3-hydroxypropan-2-yl)phosphonic acid] | ≤ 100
C[C@H](O)COc1nc(NC2CCCC2)c2cnn([C@@H]3O[C@H](COC(CO)(CO)P(=O)(O)O)[C@@H](O)[C@H]3O)c2n1 (racemic) [Example 181, rac-(2-(((2R,3S,4R,5R)-5-(4-(cyclopentylamino)-6-((S)-2-hydroxypropoxy)-1H-pyrazolo[3,4-d]pyrimidin-1-yl)-3,4-dihydroxytetrahydrofuran-2-yl)methoxy)-1,3-dihydroxypropan-2-yl)phosphonic acid] | ≤ 100
C[C@@](CO)(OC[C@H]1O[C@@H](n2ncc3c(N[C@@H]4CC[C@H]5CCC[C@H]54)nc(Cl)nc32)[C@H](O)[C@@H]1O)P(=O)(O)O (racemic) [Example 182, rac-((R)-2-(((2R,3S,4R,5R)-5-(6-chloro-4-(((1R,3aR,6aR)-octahydropentalen1-yl)amino)-1H-pyrazolo[3,4-d]pyrimidin-1-yl)-3,4-dihydroxytetrahydrofuran-2-yl)methoxy)-1-hydroxypropan-2-yl)phosphonic acid] | ≤ 100
O=P(O)(O)C(CO)(Cc1nn[nH]n1)OC[C@H]1O[C@@H](n2ncc3c(NCC4CC4)nc(Cl)nc32)[C@H](O)[C@@H]1O (mixture of isomers) [Example 184, rac-(2-(((2R,3S,4R,5R)-5-(6-chloro-4-((cyclopropylmethyl)amino)-1H-pyrazolo[3,4-d]pyrimidin-1-yl)-3,4-dihydroxytetrahydrofuran-2-yl)methoxy)-1-hydroxy-3-(2H-tetrazol-5-yl)propan-2-yl)phosphonic acid] | ≤ 100
CCOCC(COCC)(OC[C@H]1O[C@@H](n2ncc3c(NC4CCCC4)nc(Cl)nc32)[C@H](O)[C@@H]1O)P(=O)(O)O (racemic) [Example 185, rac-(2-(((2R,3S,4R,5R)-5-(6-chloro-4-(cyclopentylamino)-1H-pyrazolo[3,4-d]pyrimidin-1-yl)-3,4-dihydroxytetrahydrofuran-2-yl)methoxy)-1,3-diethoxypropan-2-yl)phosphonic acid] | ≤ 100
O=C1CC(OC[C@H]2O[C@@H](n3ncc4c(NC5CCCC5)nc(Cl)nc43)[C@H](O)[C@@H]2O)(P(=O)(O)O)CO1 (mixture of isomers) [Example 186, rac-(3-(((2R,3S,4R,5R)-5-(6-chloro-4-(cyclopentylamino)-1H-pyrazolo[3,4-d]pyrimidin-1-yl)-3,4-dihydroxytetrahydrofuran-2-yl)methoxy)-5-oxotetrahydrofuran-3-yl)phosphonic acid] | ≤ 100
O=C(O)c1ccc(C[C@@](CO)(OC[C@H]2O[C@@H](n3ncc4c(NC5CCCC5)nc(Cl)nc43)[C@H](O)[C@@H]2O)P(=O)(O)O)cc1 (racemic) [Example 187, rac-4-((R)-2-(((2R,3S,4R,5R)-5-(6-chloro-4-(cyclopentylamino)-1H-pyrazolo[3,4-d]pyrimidin-1-yl)-3,4-dihydroxytetrahydrofuran-2-yl)methoxy)-3-hydroxy-2-phosphonopropyl)benzoic acid] | 100 to 1000
O=C(O)c1ccc(C[C@](CO)(OC[C@H]2O[C@@H](n3ncc4c(NC5CCCC5)nc(Cl)nc43)[C@H](O)[C@@H]2O)P(=O)(O)O)cc1 (racemic) [Example 188, rac-4-((R)-2-(((2S,3R,4S,5S)-5-(6-chloro-4-(cyclopentylamino)-1H-pyrazolo[3,4-d]pyrimidin-1-yl)-3,4-dihydroxytetrahydrofuran-2-yl)methoxy)-3-hydroxy-2-phosphonopropyl)benzoic acid] | 100 to 1000
O=P(O)(O)C(CO)(CO)OC[C@H]1O[C@@H](n2ncc3c(N[C@@H]4CCCc5ccccc54)nc(Cl)nc32)[C@H](O)[C@@H]1O (racemic) [Example 189, rac-(2-(((2R,3S,4R,5R)-5-(6-chloro-4-(((R)-1,2,3,4-tetrahydronaphthalen-1-yl)amino)-1H-pyrazolo[3,4-d]pyrimidin-1-yl)-3,4-dihydroxytetrahydrofuran-2-yl)methoxy)-1,3-dihydroxypropan-2-yl)phosphonic acid] | ≤ 100
O=C(O)c1cccc(CC(CO)(OC[C@H]2O[C@@H](n3ncc4c(NC5CCCC5)nc(Cl)nc43)[C@H](O)[C@@H]2O)P(=O)(O)O)c1 (mixture of isomers) [Example 190, rac-3-(2-(((2R,3S,4R,5R)-5-(6-chloro-4-(cyclopentylamino)-1H-pyrazolo[3,4-d]pyrimidin-1-yl)-3,4-dihydroxytetrahydrofuran-2-yl)methoxy)-3-hydroxy-2-phosphonopropyl)benzoic acid] | ≤ 100
C[C@@H](O)COc1nc(NC2CCCC2)c2cnn([C@@H]3O[C@H](COC(CO)(CO)P(=O)(O)O)[C@@H](O)[C@H]3O)c2n1 (racemic) [Example 191, rac-(2-(((2R,3S,4R,5R)-5-(4-(cyclopentylamino)-6-((R)-2-hydroxypropoxy)-1H-pyrazolo[3,4-d]pyrimidin-1-yl)-3,4-dihydroxytetrahydrofuran-2-yl)methoxy)-1,3-dihydroxypropan-2-yl)phosphonic acid] | ≤ 100
CC(C)(O)C#Cc1nc(NC2CCCC2)c2cnn([C@@H]3O[C@H](COC(C)(CO)P(=O)(O)O)[C@@H](O)[C@H]3O)c2n1 (mixture of isomers) [Example 192, rac-(2-(((2R,3S,4R,5R)-5-(4-(cyclopentylamino)-6-(3-hydroxy-3-methylbut-1-yn-1-yl)-1H-pyrazolo[3,4-d]pyrimidin-1-yl)-3,4-dihydroxytetrahydrofuran-2-yl)methoxy)-1-hydroxypropan-2-yl)phosphonic acid] | ≤ 100
C[C@](CO)(OC[C@H]1O[C@@H](n2ncc3c(NC4CCCC4)cc(Cl)nc32)[C@H](O)[C@@H]1O)P(=O)(O)O (racemic) [Example 193, rac-((R)-2-(((2S,3R,4S,5S)-5-(6-chloro-4-(cyclopentylamino)-1H-pyrazolo[3,4-b]pyridin-1-yl)-3,4-dihydroxytetrahydrofuran-2-yl)methoxy)-1-hydroxypropan-2-yl)phosphonic acid] | ≤ 100
C[C@@](CO)(OC[C@H]1O[C@@H](n2ncc3c(NC4CCCC4)cc(Cl)nc32)[C@H](O)[C@@H]1O)P(=O)(O)O (racemic) [Example 194, rac-((R)-2-(((2R,3S,4R,5R)-5-(6-chloro-4-(cyclopentylamino)-1H-pyrazolo[3,4-b]pyridin-1-yl)-3,4-dihydroxytetrahydrofuran-2-yl)methoxy)-1-hydroxypropan-2-yl)phosphonic acid] | ≤ 100
O=P(O)(O)C(CO)(Cc1cc(O)no1)OC[C@H]1O[C@@H](n2ncc3c(NC4CCCC4)nc(Cl)nc32)[C@H](O)[C@@H]1O (mixture of isomers) [Example 195, rac-(2-(((2R,3S,4R,5R)-5-(6-chloro-4-(cyclopentylamino)-1H-pyrazolo[3,4-d]pyrimidin-1-yl)-3,4-dihydroxytetrahydrofuran-2-yl)methoxy)-1-hydroxy-3-(3-hydroxyisoxazol-5-yl)propan-2-yl)phosphonic acid] | ≤ 100
O=P(O)(O)[C@](CO)(Cc1nn[nH]n1)OC[C@H]1O[C@@H](n2ncc3c(NCC4CC4)nc(Cl)nc32)[C@H](O)[C@@H]1O (racemic) [Example 196, rac-((R)-2-(((2S,3R,4S,5S)-5-(6-chloro-4-((cyclopropylmethyl)amino)-1H-pyrazolo[3,4-d]pyrimidin-1-yl)-3,4-dihydroxytetrahydrofuran-2-yl)methoxy)-1-hydroxy-3-(2H-tetrazol-5-yl)propan-2-yl)phosphonic acid] | ≤ 100
O=P(O)(O)[C@@](CO)(Cc1nn[nH]n1)OC[C@H]1O[C@@H](n2ncc3c(NCC4CC4)nc(Cl)nc32)[C@H](O)[C@@H]1O (racemic) [Example 197, rac-((R)-2-(((2R,3S,4R,5R)-5-(6-chloro-4-((cyclopropylmethyl)amino)-1H-pyrazolo[3,4-d]pyrimidin-1-yl)-3,4-dihydroxytetrahydrofuran-2-yl)methoxy)-1-hydroxy-3-(2H-tetrazol-5-yl)propan-2-yl)phosphonic acid] | ≤ 100
